This is an account of results in patent US20250213556A1, “COMBINATION THERAPY FOR TREATING CANCER” (AstraZeneca AB, priority 2022, published 2025).

By TGI is commonly meant how far tumour growth fell short of that in controls. Low values mean little slowing of growth, high ones much slowing of growth. The term AC50 denotes the concentration at which the activity in the assay is half-maximal.

Each structure is given as a SMILES string.

The test system of one assay is LNCaP tumours. In words: In vivo pre-clinical model LNCaP (subcutaneous xenograft). Conditions: 42 days, NOD SCID mice, vs vehicle. The protocol: LNCaP cells (1×10^7 cells 1:1 in Matrigel) were implanted subcutaneously onto the flank of male NOD SCID mice (aged 5-8 weeks weighing approximately 25-30 g, supplied by Charles River) using a 23-gauge needle.
The mice were dosed for 42 days, with the dose calculated for individual animals on day of dosing, and with a […] dosing volume.
Tumours were measured ×3 per week using digital calipers. The length and width of the tumour will be measured and volume calculated using the following formula: […]
The bodyweight of all mice in the study was measured and recorded 3 times per week; this information was used to calculate precise dosing for each animal.

For another assay, the system named is C901 tumours. In words: In vivo pre-clinical model C901 patient derived xenograft (PDX). The settings on record: 21 days, NMRI Nude mice, vs vehicle. As to the method:
C901 patient derived xenograft (PDX) model was engrafted subcutaneously onto the flank of donor mice and monitored once a week until ethical size (1000-2000 mm^3). When donor tumours reached ethical size, PDX fragments measuring approximately 20 mm^3 were engrafted in the study mice (male NMRI Nude mice, aged 6-9 weeks, supplied by Janvier labs).
The mice were dosed for 21 days, with the dose calculated for individual animals on day of dosing, and with a […] dosing volume.
Tumours were measured ×2 per week using digital calipers. The length and width of the tumour will be measured and volume calculated using the following formula: […]
The bodyweight of all mice in the study was measured and recorded 2 times per week; this information was used to calculate precise dosing for each animal.
A general note: A xenograft is tissue or cells of one species grown in another, often human tumour cells in immunodeficient mice.

The next assay relates to ATM-KO LNCAP cells. In words: Cell proliferation assay and synergy in isogenic ATM-KO LNCAP cells. It counts as cell-based. The settings on record: monotherapy; for AC50: Homo sapiens, LNCaP. The protocol:
(§1) Cells in 384-well or 96-well plates were dosed using an Echo 555 (LabCyte, San Jose, CA, USA) or using the HP D300e Digital Dispenser (HP Life Science Dispensing), respectively.
(§2) Live cell count pre- and post-treatment (7 days after treatment) was determined using CellTiter-Glo as per manufacturer's instructions (Promega, Madison, WI, USA; G7570).
(§3) Cell viability was determined with the Sytox Green assay as described in Davies 2012 and the AC50 calculated. The HSA (Highest Single Agent) Synergy Score was calculated according to Bernenbaum 1989.
An isogenic ATM-KO model in LNCAP cells was generated with CRISPR-Cas9 technology.
(§4) Using the method of example 1, these ATM-KO cell lines were determined to be sensitive to AZD5305, with an AC50 of 3 nM, in contrast to the parental (or control) LNCAP cell line which is not sensitive to AZD5305 monotherapy, with an AC50 greater than 10 μM.
(§5) The HSA (Highest Single Agent) Synergy Score was calculated according to Bernenbaum 1989 when the AZD5305 and enzalutamide were used in combination.

The test system of another assay is C4-2 cells. In words: Cell proliferation assay and combination benefit calculation, C4-2. The class given is cell-based. The settings on record: 168 h, monotherapy, 7 days after treatment. The protocol:
(§6) Cell line identification was validated using the CellCheck assay (IDEXX Bioanalytics, Westbrook, ME, USA). All cell lines were validated free of virus Mycoplasma contamination using the MycoSEQ assay (Thermo Fisher Scientific, Waltham, MA, USA) or STAT-Myco assay (IDEXX Bioanalytics). All cell lines were grown RPMI-1640 growth media (Corning 17-105-CV) supplemented with 10% fetal bovine serum (FBS) or, when indicated, 10% charcoal stripped FBS (ThermoFisher Scientific, 12676029) and 2 mM glutamine.
as §1, §2, §3

Another assay deals with CWR22Pc-R1-AD1 cells. Put plainly: Cell proliferation assay and combination benefit calculation, CWR22Pc-R1-AD1. The settings on record: 168 h, monotherapy, 7 days after treatment. It counts as cell-based. As to the method: as §6, §1, §2, §3
The subject of the next assay is LnCAP cells. Put plainly: Cell proliferation assay and combination benefit calculation, LnCAP. It counts as cell-based. The settings on record: Homo sapiens, monotherapy. The protocol: as §6, §1, §2, §3, §4, §5
The test system of a further assay is VCAP cells. In words: Cell proliferation assay and combination benefit calculation, VCAP. The settings on record: Homo sapiens, 168 h, monotherapy, 7 days after treatment. It counts as cell-based. As to the method:
as §6, §1, §2, §3

[1] abbreviates: 168 h, LnCAP, 7 days after treatment.
Where [2] appears, read: LnCAP parental (control), Example 2.

In the case of `CCc1cc2ncc(CN3CCN(c4ccc(C(=O)NC)nc4)CC3)cc2[nH]c1=O` [AZD5305, 5-{4-[(7-ethyl-6-oxo-5,6-dihydro-1,5-naphthyridin-3-yl)methyl]piperazin-1-yl}-N-methylpyridine-2-carboxamide], the “tumour growth inhibition (TGI)” value in the assay with LNCaP tumours (AZD5305 1 mg/kg QD) is listed as “no or minimal (4%)”. Further, in the assay on C901 tumours (AZD5305 1 mg/kg QD), the TGI is on record as 90%. In addition, the AC50 with ATM-KO LNCAP cells (ATM-KO cell lines (clone.1 and clone.2)) is 3 nM; in the assay on C4-2 cells, 20 µM; in the assay with CWR22Pc-R1-AD1 cells it was 0.0316 µM; in the assay with LnCAP cells (setting [1]), 12 µM; in the assay on LnCAP cells (setting [2]), more than 10 µM; with VCAP cells, 1600 nM.
Turning to `CNC(=O)c1ccc(N2C(=S)N(c3ccc(C#N)c(C(F)(F)F)c3)C(=O)C2(C)C)cc1F` [Enzalutamide, 4-(3-(4-cyano-3-(trifluoromethyl)phenyl)-5,5-dimethyl-4-oxo-2-thioxoimidazolidin-1-yl)-2-fluoro-N-methylbenzamide], the “tumour growth inhibition (TGI)” value in the assay on LNCaP tumours (enzalutamide 4 mg/kg QD) is recorded as “no or minimal (4%)”. Besides, in the assay with C901 tumours (enzalutamide 60 mg/kg QD), the TGI is on record as 92%. Moreover, the AC50 with ATM-KO LNCAP cells (LnAP-ATM-KO-CL.1) is more than 10000 nM; in the assay on C4-2 cells it was 8.33 µM; in the assay on CWR22Pc-R1-AD1 cells it was 9.59 µM; in the assay on LnCAP cells (setting [1]), 1.41 µM; in the assay with LnCAP cells (setting [2]), more than 10 µM; in the assay on VCAP cells, 2940 nM. For the same compound, the “Sensitivity of the cell lines” value with ATM-KO LNCAP cells (the cell lines of Example 2 (LNCAP parental and ATM-KO)) is listed as “No sensitivity could be measured”.
